Experimental data published in patent US20040171687A1 (priority 2002, published 2004).

System: human skin
Assay: Human skin contact with acidic solution
Conditions: solution with a pH of less than 0.5

O=S(=O)(O)O [sulfuric acid]
irritation or injury of the hand put into the solution: an irritation would occur within a relatively short span of time
